Data on 16 molecules can be found in US12060351B2, “Thiadiazole IRAK4 inhibitors” (Gilead Sciences, Inc., priority 2018, dated 2024).

Broadly, the EC50 is the midpoint of the concentration-response curve. A word on the IC50: it is the point on the concentration scale where inhibition reaches its midpoint.

The first assay deals with TNFα. Briefly: IRAK4 Monocyte TNFα Cell Based Assay (LPS-stimulated, TR-FRET TNFα detection). Details: species or system human. The following applies: Homo sapiens, Monocyte, human monocytes, LPS-stimulated; Table 2 second part (compounds 33-343); read-out: EC50 MONO TNF HTRF. Here is the method:
IRAK4 Monocyte TNFα Cell Based Assay Procedure:
The cell suspension was then plated at a density of 5,000 cells/well onto black 384 well Greiner clear bottom plates. Plates were pre-spotted with test compounds and serially diluted in DMSO where 40 nL/well were delivered using the Echo 550 acoustic liquid dispenser (Labcyte®) for a final DMSO concentration of 0.1%. Plated cells were treated with compound for 1 hour at 37° C. Cells were then stimulated with 50 pg/ml of LPS (Sigma) excluding outside columns of plate used for unstimulated cell control wells. Cells were incubated for an additional 4 hours at 37° C. Cells were then spun out of the media and 5 μl of sample were taken and analyzed for total TNFα content using the TR-FRET Human TNFα detection system (CisBio). This system utilizes two labeled antibodies (cryptate and XL665) that bind to two different epitopes of the TNFα molecule and produce FRET signal proportional to the concentration of TNFα in the sample. Detection antibodies are mixed 50:50 and 5 μL were dispensed into each well. Plates were covered with clear seals and incubated at room temp overnight. […] Percent of control was calculated as follows: % Control=100×(RatioSample−Ratio0% Stimulation)/(Ratio100% Stimulation−Ratio0% Stimulation) where unstimulated cells (0% stimulation) were the negative control and stimulated cells (100% stimulation) were used as the positive control.
In the case of `CC(C)Nc1cc(-c2ccc3cc(C#N)cnn23)ncc1-c1nnc(C2CCNCC2)s1` [Example 129, 7-(4-(isopropylamino)-5-(5-(piperidin-4-yl)-1,3,4-thiadiazol-2-yl)pyridin-2-yl)pyrrolo[1,2-b]pyridazine-3-carbonitrile], the concentration for a half-maximal effect (EC50) was determined as 21.7 nM.

On to `CC(C)Nc1cc(-c2ccc3cc(C#N)cnn23)ncc1-c1nnc(N2C[C@H]3CC[C@@H](C2)[C@@H]3NC(=O)N2CCN(C3COC3)CC2)s1` [Example 116, N-((1R,5S,8s)-3-(5-(6-(3-cyanopyrrolo[1,2-b]pyridazin-7-yl)-4-(isopropylamino)pyridin-3-yl)-1,3,4-thiadiazol-2-yl)-3-azabicyclo[3.2.1]octan-8-yl)-4-(oxetan-3-yl)piperazine-1-carboxamide], for which the EC50 is 4.1 nM.

For `CC(C)Nc1cc(-c2ccc3cc(C#N)cnn23)ncc1-c1nnc(N2CCS(=O)(=O)CC2)s1` [Compound 257, 7-(5-(5-(1,1-dioxidothiomorpholino)-1,3,4-thiadiazol-2-yl)-4-(isopropylamino)pyridin-2-yl)pyrrolo[1,2-b]pyridazine-3-carbonitrile], the EC50 was not below 10000 nM.

Turning to `CC(C)Nc1cc(-c2ccc3cc(C#N)cnn23)ncc1-c1nnc(N2C[C@H]3CC[C@@H](C2)[C@@H]3NC(=O)[C@@H](C)O)s1` [Example 90, (R)-N-((1R,5S,8s)-3-(5-(6-(3-cyanopyrrolo[1,2-b]pyridazin-7-yl)-4-(isopropylamino)pyridin-3-yl)-1,3,4-thiadiazol-2-yl)-3-azabicyclo[3.2.1]octan-8-yl)-2-hydroxypropanamide], the EC50 came out at 3.6 nM.

Turning to `CC(=O)N[C@@H]1[C@@H]2CC[C@H]1CN(c1nnc(-c3cnc(-c4ccc5cc(C#N)cnn45)cc3N[C@H](C)C#N)s1)C2` [Example 53, N-((1R,5S,8S)-3-(5-(4-(((R)-1-cyanoethyl)amino)-6-(3-cyanopyrrolo[1,2-b]pyridazin-7-yl)pyridin-3-yl)-1,3,4-thiadiazol-2-yl)-3-azabicyclo[3.2.1]octan-8-yl)acetamide], the concentration giving a half-maximal response (EC50) came out at 0.6 nM.

Regarding `CC(C)Nc1cc(-c2ccc3cc(C#N)cnn23)ncc1-c1nnc(N2C[C@H]3CC[C@@H](C2)[C@@H]3NC(=O)N2CCN(C)CC2)s1` [Example 96, N-((1R,5S,8s)-3-(5-(6-(3-cyanopyrrolo[1,2-b]pyridazin-7-yl)-4-(isopropylamino)pyridin-3-yl)-1,3,4-thiadiazol-2-yl)-3-azabicyclo[3.2.1]octan-8-yl)-4-methylpiperazine-1-carboxamide], the EC50 turned out to be 2.3 nM.

For `CC(C)(O)C(=O)NC12CCC(c3nnc(-c4cnc(-c5ccc6cc(C#N)cnn56)cc4NC4CCOCC4)s3)(CC1)CC2` [Example 337, N-(4-(5-(6-(3-cyanopyrrolo[1,2-b]pyridazin-7-yl)-4-((tetrahydro-2H-pyran-4-yl)amino)pyridin-3-yl)-1,3,4-thiadiazol-2-yl)bicyclo[2.2.2]octan-1-yl)-2-hydroxy-2-methylpropanamide], the EC50 was found to be 3.3 nM.

Consider `CC(C)Nc1cc(-c2ccc3cc(C#N)cnn23)ncc1-c1nnc([C@H]2C[C@@H](NC(=O)C3CC3)C2)s1` [Example 281, N-((1s,3s)-3-(5-(6-(3-cyanopyrrolo[1,2-b]pyridazin-7-yl)-4-(isopropylamino)pyridin-3-yl)-1,3,4-thiadiazol-2-yl)cyclobutyl)cyclopropanecarboxamide], for which the concentration giving a half-maximal response (EC50) was 8280 nM.

Take `CC(=O)NC12CCC(c3nnc(-c4cnc(-c5ccc6cc(C#N)cnn56)cc4N[C@H](C)C#N)s3)(CC1)CC2` [Example 72, (R)-N-(4-(5-(4-((1-cyanoethyl)amino)-6-(3-cyanopyrrolo[1,2-b]pyridazin-7-yl)pyridin-3-yl)-1,3,4-thiadiazol-2-yl)bicyclo[2.2.2]octan-1-yl)acetamide]: the EC50 was 2.8 nM.

As for `CC(=O)N1CCN(C(=O)N[C@@H]2[C@@H]3CC[C@H]2CN(c2nnc(-c4cnc(-c5ccc6cc(C#N)cnn56)cc4NC(C)C)s2)C3)CC1` [Example 104, 4-acetyl-N-((1R,5S,8s)-3-(5-(6-(3-cyanopyrrolo[1,2-b]pyridazin-7-yl)-4-(isopropylamino)pyridin-3-yl)-1,3,4-thiadiazol-2-yl)-3-azabicyclo[3.2.1]octan-8-yl)piperazine-1-carboxamide], the EC50 was found to be 1.7 nM.

Take `CC(C)Nc1cc(-c2ccc3cc(C#N)cnn23)ncc1-c1nnc([C@H]2C[C@H](NC3COC3)C2)s1` [Example 283, 7-(4-(isopropylamino)-5-(5-((1r,3r)-3-(oxetan-3-ylamino)cyclobutyl)-1,3,4-thiadiazol-2-yl)pyridin-2-yl)pyrrolo[1,2-b]pyridazine-3-carbonitrile]: the EC50 was determined as 19.9 nM.

The same assay, now with this note: Homo sapiens, Monocyte, read-out: EC50 MONO TNF HTRF.
For `C[C@H](C#N)Nc1cc(-c2ccc3cc(C#N)cnn23)ncc1-c1nnc(N2CC3CC(C2)N3C(=O)C(C)(C)O)s1` [Example 115, 7-(4-(((R)-1-cyanoethyl)amino)-5-(5-(6-(2-hydroxy-2-methylpropanoyl)-3,6-diazabicyclo[3.1.1]heptan-3-yl)-1,3,4-thiadiazol-2-yl)pyridin-2-yl)pyrrolo[1,2-b]pyridazine-3-carbonitrile], the EC50 was 3.5 nM.

The assay is the same for the next values; noted with them: human monocytes, LPS-stimulated; Table 2 second part (compounds 33-343); read-out: EC50 MONO TNF HTRF.
Take `CC1(Nc2cc(-c3ccc4cc(C#N)cnn34)ncc2-c2nnc(N3CC4CC(C3)N4C(=O)C(C)(C)O)s2)COC1` [Example 112, 7-(5-(5-(6-(2-hydroxy-2-methylpropanoyl)-3,6-diazabicyclo[3.1.1]heptan-3-yl)-1,3,4-thiadiazol-2-yl)-4-((3-methyloxetan-3-yl)amino)pyridin-2-yl)pyrrolo[1,2-b]pyridazinc-3-carbonitrile]: the concentration for a half-maximal effect (EC50) worked out at 13.1 nM.

In the case of `CC(C)Nc1cc(-c2ccc3cc(C#N)cnn23)ncc1-c1nnc(N2CC3CC(C2)N3C(=O)CN=S(C)(C)=O)s1` [Example 107, 7-(5-(5-(6-(2-((dimethyl(oxo)-16-sulfanylidene)amino)acetyl)-3,6-diazabicyclo[3.1.1]heptan-3-yl)-1,3,4-thiadiazol-2-yl)-4-(isopropylamino)pyridin-2-yl)pyrrolo[1,2-b]pyridazine-3-carbonitrile], the EC50 was 18.4 nM.

A further assay has as its target T1, IRAK4 enzyme (Homo sapiens, UniProt Q9NWZ3).
T1 construct: purchased Carna Biosciences, Chuo-ku, Kobe, Japan
T1 sequence (Q9NWZ3 1-460): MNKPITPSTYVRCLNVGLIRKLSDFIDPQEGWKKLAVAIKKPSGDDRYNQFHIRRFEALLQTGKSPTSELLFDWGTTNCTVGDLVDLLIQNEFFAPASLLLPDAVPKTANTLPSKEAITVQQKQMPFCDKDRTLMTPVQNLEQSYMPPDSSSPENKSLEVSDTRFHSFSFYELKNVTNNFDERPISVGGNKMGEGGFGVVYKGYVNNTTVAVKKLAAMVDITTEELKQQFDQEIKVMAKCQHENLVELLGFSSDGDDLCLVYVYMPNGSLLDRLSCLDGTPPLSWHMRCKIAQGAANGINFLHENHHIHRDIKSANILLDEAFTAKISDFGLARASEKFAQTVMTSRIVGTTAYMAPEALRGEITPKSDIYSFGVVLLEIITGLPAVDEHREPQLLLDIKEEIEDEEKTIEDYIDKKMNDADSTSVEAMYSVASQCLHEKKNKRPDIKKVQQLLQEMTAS
Briefly: IRAK4 Biochemical Assay (TR-FRET, STK1 KinEASE). The following applies: 500 μM ATP, Table 2 second part (compounds 33-343), read-out: IC50 IRAK4-HTBS. Here is the method:
IRAK4 enzyme (Carna Biosciences, Chuo-ku, Kobe, Japan) activity was measured by detecting phosphorylated peptide substrate formation using an antibody against the phosphorylated peptide substrate. This is a time-resolved fluorescence resonance energy transfer (TR-FRET) immunoassay, based on the STK1 KinEASE Assay (Cisbio, Bedford, Massachusetts). The assay was designed as a simple two-step, endpoint assay (a 5 μl enzyme reaction followed by 5 μl stop and detect Solution) performed in ProxiPlate-384 Plus plates (Perkin Elmer, Waltham, Massachusetts). […] Compounds diluted in DMSO were spotted into 384 well plates using a Labcyte® Echo 550 Liquid Handling System prior to addition of IRAK4 enzyme and peptide substrate. Reaction solutions were delivered using a Multi-Flo (Bio-Tek Instruments). The enzyme and peptide solution was incubated with compound for 15 minutes at room temp before the reaction was initiated by the addition of ATP. The standard 5 μl reaction mixture contained 500 μM ATP, 2 μM peptide (STK1 Peptide), 0.75 nM of IRAK4 in reaction buffer (50 mM HEPES, pH 7.0, 0.02% NaN3, 0.01% BSA, 0.1 mM Orthovanadate, 5 mM MgCl2, 0.025% NP-40, 1 mM DTT). After 120 min of incubation at room temperature, 5 μl of Stop and Detect Solution (1:100 Cryptate labeled anti-phosphorylated peptide antibody solution and 125 nM Tracer in a 50 mM HEPES pH 7.0 detection buffer containing sufficient EDTA) was added. The plate was then further incubated for 60 minutes at room temperature and read on Envision 2103 Multilabeled reader (PerkinElmer) with excitation/emission/FRET emission at 340 nm/615 nm/665 nm, respectively. Fluorescence intensities at 615 nm and 665 nm emission wavelengths were expressed as a ratio (665 nm/615 nm).
Background: Time-resolved FRET reads energy transfer from a long-lived donor to a nearby acceptor.
Turning to `CC(=O)N[C@@H]1CCN(c2nnc(-c3cnc(-c4ccc5cc(C#N)cnn45)cc3NC(C)C)s2)C[C@@H]1O` [Example 63, N-((3S,4R)-1-(5-(6-(3-cyanopyrrolo[1,2-b]pyridazin-7-yl)-4-(isopropylamino)pyridin-3-yl)-1,3,4-thiadiazol-2-yl)-3-hydroxypiperidin-4-yl)acetamide], the IC50 came out at 0.29 nM.

`CC(C)Nc1cc(-c2ccc3cc(C#N)cnn23)ncc1-c1nnc(N2C[C@H]3CC[C@@H](C2)[C@@H]3O)s1` [Example 154, 7-(5-(5-((1R,5S,8s)-8-hydroxy-3-azabicyclo[3.2.1]octan-3-yl)-1,3,4-thiadiazol-2-yl)-4-(isopropylamino)pyridin-2-yl)pyrrolo[1,2-b]pyridazine-3-carbonitrile]: the half-inhibitory concentration (IC50) turned out to be 1.57 nM.
